Experimental data taken from US4272437A, “Antibacterial agents, and 4-thio azetidinone intermediates” (priority 1979, dated 1981).
Converted amounts (≈) assume the structure as drawn. Where a name gives a salt, the structure may show the parent alone. Read-outs that look alike come from different tables or passages of the source.

What was measured:
[1] = tested on: Str. pneumoniae A-9585; test: MIC, tube dilution, Streptococcus pneumoniae A9585; type: cell-based; conditions: Streptococcus pneumoniae, A9585, Str. pneumoniae A9585; overnight 37° C., Nutrient Broth; read-out: Minimum Inhibitory Concentration (M.I.C.)
From the text: (§1) Representative compounds of the present invention were subjected to in vitro antibiotic screening against a variety of microorganisms.

[2] = tested on: Str. pyogenes A-9604; test: MIC, tube dilution, Streptococcus pyogenes A9604; type: cell-based; conditions: Streptococcus pyogenes, A9604, Str. pyogenes A9604; overnight 37° C., Nutrient Broth; read-out: Minimum Inhibitory Concentration (M.I.C.)
From the text: as §1

[3] = tested on: Staph. aureus A-9537; test: MIC, tube dilution, Staphylococcus aureus A9537; type: cell-based; conditions: Staphylococcus aureus, A9537, Staph. aureus A9537; overnight 37° C., Nutrient Broth; read-out: Minimum Inhibitory Concentration (M.I.C.)
From the text: as §1

[4] = tested on: Staph. aureus A-9537 and 50% serum; test: MIC, tube dilution, Staph. aureus A9537 + 50% serum; type: cell-based, Staphylococcus aureus; conditions: Staphylococcus aureus, overnight 37° C., read-out: Minimum Inhibitory Concentration (M.I.C.)
From the text: as §1

[5] = tested on: Staph. aureus (Pen-Res) A-9606; test: MIC, tube dilution, Staphylococcus aureus A9606 (Pen-Res); type: cell-based; conditions: Staphylococcus aureus, overnight 37° C.
From the text: as §1

[6] = tested on: Staph. aureus (Meth-Res) A-15097; test: MIC, tube dilution, Staphylococcus aureus A15097 (Meth-Res); type: cell-based; conditions: Staphylococcus aureus, overnight 37° C.
From the text: as §1

[7] = tested on: Str. faecalis A-20688; test: MIC, tube dilution, Streptococcus faecalis A20688; type: cell-based; conditions: Enterococcus faecalis, A20688, Str. faecalis A20688; overnight 37° C.; read-out: Minimum Inhibitory Concentration (M.I.C.)
From the text: as §1

[8] = tested on: E. coli A-15119; test: MIC, tube dilution, Escherichia coli A15119; type: cell-based; conditions: Escherichia coli, A15119, E. coli A15119; overnight 37° C.; read-out: Minimum Inhibitory Concentration (M.I.C.)
From the text: as §1

[9] = tested on: E. coli A-20341-1; test: MIC, tube dilution, Escherichia coli A20341-1; type: cell-based
From the text: as §1

[10] = tested on: K. pneumoniae A-15130; test: MIC, tube dilution, Klebsiella pneumoniae A15130; type: cell-based; conditions: Klebsiella pneumoniae, A15130, K. pneumoniae A15130; overnight 37° C.; read-out: Minimum Inhibitory Concentration (M.I.C.)
From the text: as §1

[11] = tested on: Klebsiella species A20468; test: MIC, tube dilution, Klebsiella species A20468; type: cell-based; conditions: Klebsiella species (K. pneumoniae) A20468; overnight 37° C.; read-out: Minimum Inhibitory Concentration (M.I.C.)
From the text: as §1

[12] = tested on: Pr. mirabilis A-9900; test: MIC, tube dilution, Proteus mirabilis A9900; type: cell-based; conditions: Proteus mirabilis, A9900, Proteus mirabilis A9900; overnight 37° C.; read-out: Minimum Inhibitory Concentration (M.I.C.)
From the text: as §1

[13] = tested on: Pr. morganii A-15153; test: MIC, tube dilution, Proteus morganii A15153; type: cell-based; conditions: Morganella morganii, A15153, Proteus morganii A15153; overnight 37° C.; read-out: Minimum Inhibitory Concentration (M.I.C.)
From the text: as §1

[14] = tested on: Ser. marcescens A-20019; test: MIC, tube dilution, Serratia marcescens A20019; type: cell-based; conditions: Serratia marcescens, A20019, Serratia marcescens A20019; overnight 37° C.; read-out: Minimum Inhibitory Concentration (M.I.C.)
From the text: as §1

[15] = tested on: Ent. cloacae A-9659; test: MIC, tube dilution, Enterobacter cloacae A9659; type: cell-based; conditions: Enterobacter cloacae, A9659, Enterobacter cloacae A9659; overnight 37° C.; read-out: Minimum Inhibitory Concentration (M.I.C.)
From the text: as §1

[16] = tested on: Ent. cloacae A-9656; test: MIC, tube dilution, Enterobacter cloacae A9656; type: cell-based; conditions: overnight 37° C., read-out: Minimum Inhibitory Concentration (M.I.C.)
From the text: as §1

[17] = tested on: Ps. aeruginosa A-9843A; test: MIC, tube dilution, Pseudomonas aeruginosa A9843A; type: cell-based; conditions: Pseudomonas aeruginosa, A9843A, read-out: Minimum Inhibitory Concentration (M.I.C.), Pseudomonas aeruginosa A9843A; overnight 37° C.
From the text: as §1

[18] = tested on: Ps. aeruginosa A-21213; test: MIC, tube dilution, Pseudomonas aeruginosa A21213; type: cell-based; conditions: overnight 37° C., read-out: Minimum Inhibitory Concentration (M.I.C.)
From the text: as §1

[19] = tested on: Proteus rettgeri A21203; test: MIC, tube dilution, Proteus rettgeri A21203; type: cell-based; conditions: Providencia rettgeri, overnight 37° C., read-out: Minimum Inhibitory Concentration (M.I.C.)
From the text: as §1

[20] = tested on: Proteus vulgaris A21559; test: MIC, tube dilution, Proteus vulgaris A21559; type: cell-based; conditions: Proteus vulgaris
From the text: as §1

[21] = read-out: Minimum Inhibitory Concentration (M.I.C.), Staph. aureus A9606 (Pen-Res)
[22] = read-out: Minimum Inhibitory Concentration (M.I.C.), Staph. aureus A15097 (Meth-Res)
[23] = Escherichia coli, A203411; E. coli A20341-1; overnight 37° C.; read-out: Minimum Inhibitory Concentration (M.I.C.)
[24] = A21559, read-out: Minimum Inhibitory Concentration (M.I.C.)
[25] = Staph. aureus A9606 (Pen-Res), read-out: Minimum Inhibitory Concentration (M.I.C.)
[26] = Staph. aureus A15097 (Meth-Res), read-out: Minimum Inhibitory Concentration (M.I.C.)
[27] = Escherichia coli, A203411, E. coli A20341-1; overnight 37° C.; read-out: Minimum Inhibitory Concentration (M.I.C.)
[28] = Enterobacter cloacae, A9656, Enterobacter cloacae A9656
[29] = Pseudomonas aeruginosa, A21213, Pseudomonas aeruginosa A21213
[30] = A21203, Proteus rettgeri A21203
[31] = A21559, Proteus vulgaris A21559, overnight 37° C., read-out: Minimum Inhibitory Concentration (M.I.C.)

| SMILES | MIC [1] | MIC [2] | MIC [3] | MIC [4] | MIC [7] | MIC [8] | MIC [10] | MIC [11] | MIC [12] | MIC [13] | MIC [14] | MIC [15] | MIC [17] | MIC [5, 25] | MIC [6, 26] | MIC [9, 27] | MIC [16, 28] | MIC [18, 29] | MIC [19, 30] | MIC [20, 31] | further results |
| --- | --- | --- | --- | --- | --- | --- | --- | --- | --- | --- | --- | --- | --- | --- | --- | --- | --- | --- | --- | --- | --- |
| CC[C@H](O)[C@H]1C(=O)N2C(C(=O)O)=C(C)S[C@H]12 (relative stereo) [Example 93, (1'S,5R,6S, and 1'R,5S,6R) 6-(1'--Hydroxy-1'-propyl)-2-methylpenem-3-carboxylic acid, sodium salt (isomer C)] | > 125 µg/mL | > 125 µg/mL | > 125 µg/mL | > 63 µg/mL | > 125 µg/mL | > 125 µg/mL | > 125 µg/mL | > 125 µg/mL | > 125 µg/mL | > 125 µg/mL | > 125 µg/mL | > 125 µg/mL | > 125 µg/mL | – | – | – | – | – | – | – | MIC [5, 21]: > 125 µg/mL; MIC [6, 22]: > 125 µg/mL; MIC [9, 23]: > 125 µg/mL; MIC ([16]; Enterobacter cloacae A9656): > 125 µg/mL; MIC ([18]; Pseudomonas aeruginosa A21213): > 125 µg/mL; MIC ([19]; Proteus rettgeri A21203): > 125 µg/mL; MIC [20, 24]: > 125 µg/mL |
| CC1=C(C(=O)O)N2C(=O)[C@H](CNC=O)[C@H]2S1 (relative stereo) [Example 92, 6-Formamidomethyl-2-methylpenem-3-carboxylic acid, sodium and potassium salts] | 0.5 µg/mL | 0.5 µg/mL | 8 µg/mL | 32 µg/mL | > 63 µg/mL | 32 µg/mL | 63 µg/mL | 63 µg/mL | 32 µg/mL | 63 µg/mL | 63 µg/mL | 63 µg/mL | > 63 µg/mL | 16 µg/mL | 32 µg/mL | 32 µg/mL | 63 µg/mL | > 63 µg/mL | 32 µg/mL | 32 µg/mL | – |
| COCOC[C@H](O)[C@H]1C(=O)N2C(C(=O)O)=C(C)S[C@H]12 (relative stereo) [Example 105, (1'R,5R,6S and 1'S,5S,6R) 6-(1'-Hydroxy-2'-methoxymethoxy-2'-ethyl)-2-methylpenem-3-carboxylic acid (Isomer C)] | 4 µg/mL (≈ 13.8 µM) | 4 µg/mL (≈ 13.8 µM) | > 8 µg/mL | > 32 µg/mL | > 63 µg/mL | 63 µg/mL (≈ 218 µM) | 63 µg/mL (≈ 218 µM) | > 63 µg/mL | > 63 µg/mL | > 63 µg/mL | > 63 µg/mL | 63 µg/mL (≈ 218 µM) | 63 µg/mL (≈ 218 µM) | 63 µg/mL (≈ 218 µM) | > 63 µg/mL | 63 µg/mL (≈ 218 µM) | 63 µg/mL (≈ 218 µM) | 63 µg/mL (≈ 218 µM) | 32 µg/mL (≈ 111 µM) | > 63 µg/mL | – |
| CCC(N)CC1=C(C(=O)O)N2C(=O)CC2S1 (stereo not drawn) [Example 100, 2-(2'-Aminobutyl)-penem-3-carboxylic Acid] | 0.25 µg/mL (≈ 1.03 µM) | 0.25 µg/mL (≈ 1.03 µM) | 0.25 µg/mL (≈ 1.03 µM) | 8 µg/mL | > 32 µg/mL | 4 µg/mL (≈ 16.5 µM) | 16 µg/mL (≈ 66 µM) | > 32 µg/mL | 8 µg/mL (≈ 33 µM) | 16 µg/mL (≈ 66 µM) | 8 µg/mL (≈ 33 µM) | 16 µg/mL (≈ 66 µM) | > 32 µg/mL | > 32 µg/mL | > 32 µg/mL | 32 µg/mL (≈ 132 µM) | 8 µg/mL (≈ 33 µM) | > 32 µg/mL | 8 µg/mL (≈ 33 µM) | 16 µg/mL (≈ 66 µM) | – |
| NCc1ccc(CC2=C(C(=O)O)N3C(=O)CC3S2)cc1 (stereo not drawn) [Example 85, 2-(p-Aminomethylbenzyl)penem-3-carboxylic Acid] | 0.06 µg/mL (≈ 0.207 µM) | 0.06 µg/mL (≈ 0.207 µM) | 0.06 µg/mL (≈ 0.207 µM) | 1 µg/mL | 16 µg/mL (≈ 55.1 µM) | 4 µg/mL (≈ 13.8 µM) | 32 µg/mL (≈ 110 µM) | > 63 µg/mL | 4 µg/mL (≈ 13.8 µM) | 4 µg/mL (≈ 13.8 µM) | 4 µg/mL (≈ 13.8 µM) | 8 µg/mL (≈ 27.6 µM) | 8 µg/mL (≈ 27.6 µM) | 16 µg/mL (≈ 55.1 µM) | > 63 µg/mL | 63 µg/mL (≈ 217 µM) | 8 µg/mL (≈ 27.6 µM) | 63 µg/mL (≈ 217 µM) | 4 µg/mL (≈ 13.8 µM) | > 63 µg/mL | – |
| CC1=C(C(=O)O)N2C(=O)[C@H]([C@H](O)Cc3ccccc3)[C@H]2S1 (relative stereo) [Example 95, (1'R,5R,6S and 1'S,5S,6R) 6-(1'-Hydroxy-2'-phenylethyl)-2-methylpenem-3-carboxylic acid (isomer B)] | 32 µg/mL (≈ 105 µM) | 32 µg/mL (≈ 105 µM) | 125 µg/mL (≈ 409 µM) | > 63 µg/mL | > 125 µg/mL | > 125 µg/mL | > 125 µg/mL | > 125 µg/mL | > 125 µg/mL | > 125 µg/mL | > 125 µg/mL | > 125 µg/mL | > 125 µg/mL | – | – | – | – | – | – | – | MIC [5, 21]: > 125 µg/mL; MIC [6, 22]: > 125 µg/mL; MIC [9, 23]: > 125 µg/mL; MIC ([16]; Enterobacter cloacae A9656): > 125 µg/mL; MIC ([18]; Pseudomonas aeruginosa A21213): > 125 µg/mL; MIC ([19]; Proteus rettgeri A21203): > 125 µg/mL; MIC [20, 24]: > 125 µg/mL |
